# Legend:
# [1] = molecular target: T1, F876L mutant Androgen Receptor (AR-F876L) (Homo sapiens (Human), UniProt P10275, F877L); assay: LNCaP-AR-F876L ANT reporter assay (antagonist mode); format: cell-based; details: antagonist mode; for Emax: maximum % inhibition of R1881 control response over tested concentration range, read-out: LNCaP-AR-F876L ANT MAX % Inh; for IC50: pIC50 = −Log10(IC50 in Molar), read-out: LNCaP-AR-F876L ANT pIC50 (converted)
# rGABA-gated Cl− channel = assay: GABA-Gated Cl Channel Antagonist Radioligand Binding Assay; set-up: species or system rat; details: 10 μM single point, [35S]-TBPS, cerebral cortex membrane homogenates
# Summary of the method: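 Rat cerebral cortex membranes (120 μg protein) incubated 120 min at 22° C with 3 nM […] in 50 mM Na2HPO4/KH2PO4 pH 7.4, 500 mM NaCl; nonspecific binding defined with 20 μM picrotoxinin. Bound label counted after filtration; values are percent inhibition of specific binding at 10 μM compound.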
# [2] = molecular target: T2, wild-type Androgen Receptor (AR-wt) (Homo sapiens (Human), UniProt P10275); assay: LNCaP-AR-wt AG reporter assay (agonist mode); format: cell-based; details: agonist mode; for Emax: maximum % stimulation over tested concentration range, read-out: LNCaP-AR-wt AG MAX % Stim; for EC50: pEC50 = −Log10(EC50 in Molar), read-out: LNCaP-AR-wt AG pEC50 (converted)
# [3] = molecular target: T2, wild-type Androgen Receptor (AR-wt); assay: LNCaP-AR-wt ANT reporter assay (antagonist mode); format: cell-based; details: antagonist mode; for Emax: maximum % inhibition of R1881 control response over tested concentration range, read-out: LNCaP-AR-wt ANT MAX % Inh; for IC50: pIC50 = −Log10(IC50 in Molar), read-out: LNCaP-AR-wt ANT pIC50 (converted)
# [4] = molecular target: T1, F876L mutant Androgen Receptor (AR-F876L); assay: LNCaP-AR-F876L AG reporter assay (agonist mode); format: cell-based; details: agonist mode; for Emax: maximum % stimulation over tested concentration range, read-out: LNCaP-AR-F876L AG MAX % Stim; for EC50: pEC50 = −Log10(EC50 in Molar), read-out: LNCaP-AR-F876L AG pEC50 (converted)
# [5] = system: androgen dependent signaling (androgen sensitive organs); assay: Hershberger Assay; format: in vivo, rat; details: 3 mg/kg (positive control), 10 days, with TP 0.4 mg/kg, castrated rats, mean ± SD (n=6)
# Method: The effect of AR antagonists on androgen dependent signaling in vivo was assessed using the Hershberger assay. In this assay, peripubertal castrated male Sprague-Dawley rats were administered AR antagonists described herein in the presence of testosterone (0.4 mg/kg testosterone propionate) and the weights of androgen dependent organs measured. Dosing was continued for 10 days and measurements taken 24 h after the last dose. The extent of antagonism of AR and consequent inhibition of organ growth was evaluated by comparison to the castration control. Compounds of Formula (I) were dosed orally QD and an endpoint assessment made by change in weight of 5 androgen sensitive organs (ASO): Paired Cowper's Glands (CG), Seminal Vesicles with Fluids and Coagulating Glands (SVCG), Glans Penis (GP), Ventral Prostate (VP) and Levator Ani-Bulbocavernosus Complex (LABC)). According to assay guidelines, statistically significant suppression of ASO is required in 2 of 5 organs for a compound to be classified as an anti-androgen (analysis was performed by t-test/Mann-Whitney).
# Unless otherwise stated, compounds defined herein were administered at 30 mg/kg and flutamide (FT), positive control, at 3 mg/kg. All compounds were co-administered with testosterone propionate (TP, 0.4 mg/kg) which was also administered alone, untreated control, (castrated only rats served as the control for complete androgen blockade). A statistically significant change in ASO achieved in at least 2 of 5 organs was indicative of an active compound.
# T2 sequence (P10275 whole entry): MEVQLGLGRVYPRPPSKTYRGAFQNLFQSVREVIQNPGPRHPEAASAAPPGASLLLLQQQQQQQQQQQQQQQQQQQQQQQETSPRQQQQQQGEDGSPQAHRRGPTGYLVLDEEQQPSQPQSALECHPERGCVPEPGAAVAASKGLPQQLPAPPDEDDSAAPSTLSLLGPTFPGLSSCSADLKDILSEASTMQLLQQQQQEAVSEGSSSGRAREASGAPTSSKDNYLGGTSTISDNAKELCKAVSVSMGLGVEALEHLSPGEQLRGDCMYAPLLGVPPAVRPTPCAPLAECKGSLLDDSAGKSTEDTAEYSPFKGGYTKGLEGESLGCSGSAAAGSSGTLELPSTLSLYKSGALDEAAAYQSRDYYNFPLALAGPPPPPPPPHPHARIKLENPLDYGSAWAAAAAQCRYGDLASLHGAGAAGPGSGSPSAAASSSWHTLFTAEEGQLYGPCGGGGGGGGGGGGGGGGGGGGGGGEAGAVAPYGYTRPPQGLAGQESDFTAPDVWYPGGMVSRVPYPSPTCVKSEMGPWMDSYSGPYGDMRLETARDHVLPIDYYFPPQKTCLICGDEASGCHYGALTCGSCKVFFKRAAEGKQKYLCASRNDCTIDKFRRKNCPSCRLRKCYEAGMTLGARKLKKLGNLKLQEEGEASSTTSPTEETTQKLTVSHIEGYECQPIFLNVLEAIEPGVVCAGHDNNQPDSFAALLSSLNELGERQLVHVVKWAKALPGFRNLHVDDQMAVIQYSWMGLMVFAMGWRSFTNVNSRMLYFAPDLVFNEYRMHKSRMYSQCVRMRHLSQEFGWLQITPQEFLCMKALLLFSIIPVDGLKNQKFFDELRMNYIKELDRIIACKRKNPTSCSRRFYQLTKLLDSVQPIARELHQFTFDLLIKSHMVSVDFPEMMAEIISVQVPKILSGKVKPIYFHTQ
# T1 sequence (P10275 whole entry F877L): as the sequence (P10275 whole entry) above, with F877L counted along it
Structure (SMILES),Emax [1],IC50 [1],rGABA-gated Cl− channel % inh @10 μM (rGABA-gated Cl− channel),Emax [2],EC50 [2],Emax [3],IC50 [3],Emax [4],EC50 [4],ASO Organ Growth (% of TP control) SVCG [5],ASO Organ Growth (% of TP control) VP [5]
"CN1CCOC(c2ccc(N3C(=S)N(c4cnc(C#N)c(C(F)(F)F)c4)C(=O)C34CCC4)cc2)C1 (centres unmarked) [Cpd 241, 5-[8-[4-(4-methylmorpholin-2-yl)phenyl]-5-oxo-7-thioxo-6,8-diazaspiro[3.4]octan-6-yl]-3-(trifluoromethyl)pyridine-2-carbonitrile]",103%,158 nM,87.4%,-0.1%,> 15.1 µM,103%,224 nM,1.1%,> 15.1 µM,–,–
"CN1CCC(Sc2ccc(N3C(=S)N(c4cnc(C#N)c(C(F)(F)F)c4)C(=O)C34CCC4)cc2)CC1 [Cpd 242, 5-[8-[4-[(1-methyl-4-piperidyl)sulfanyl]phenyl]-5-oxo-7-thioxo-6,8-diazaspiro[3.4]octan-6-yl]-3-(trifluoromethyl)pyridine-2-carbonitrile]",104%,245 nM,60.2%,0.1%,> 15.1 µM,99.9%,562 nM,-0.1%,> 15.1 µM,–,–
"N#Cc1ncc(N2C(=O)C3(CCC3)N(c3ccc(C4CNCCO4)cc3)C2=S)cc1C(F)(F)F (centres unmarked) [Cpd 243, 5-[8-(4-morpholin-2-ylphenyl)-5-oxo-7-thioxo-6,8-diazaspiro[3.4]octan-6-yl]-3-(trifluoromethyl)pyridine-2-carbonitrile]",100%,347 nM,57.2%,0.2%,> 15.1 µM,101%,1620 nM,0.7%,> 15.1 µM,–,–
"CC(C)C(=O)Nc1ccc([N+](=O)[O-])c(C(F)(F)F)c1 [Flutamide, flutamide, reference compound]",–,–,–,–,–,–,–,–,–,16.6 ± 16.3 % of TP control,24.4 ± 35.5 % of TP control
